Test results reported in the supplement of paper PMC10307832.

Legend:
Assay in all cases: relative viability (nuclei count vs DMSO), 5 days (fraction); higher = more cells survive
Selisistat + Lapatinib = compound: C1CC(C2=C(C1)C3=C(N2)C=CC(=C3)Cl)C(=O)N [Selisistat] + CS(=O)(=O)CCNCc1ccc(-c2ccc3ncnc(Nc4ccc(OCc5cccc(F)c5)c(Cl)c4)c3c2)o1 [Lapatinib] (partner 2 µM)
Summary of the method: (§1)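 Lung cancer cell lines, seeded in 1536-well plates, were treated the following day by pin tool with a single drug or with five library-drug doses (not always all listed) in √10 steps on top of a fixed anchor-drug dose. Cells were fixed and nuclei stained in one step after 5 days, and nuclei were counted. Relative viability is the nuclei count for treated wells divided by that for vehicle wells, reported as medians of duplicate plates.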

Serdemetan + Tozasertib = compound: c1ccc2c(CCNc3ccc(Nc4ccncc4)cc3)c[nH]c2c1 [Serdemetan] + Cc1cc(Nc2cc(N3CCN(C)CC3)nc(Sc3ccc(NC(=O)C4CC4)cc3)n2)n[nH]1 [Tozasertib] (partner 0.1 µM)
Summary of the method: as §1

Selisistat + Olaparib = compound: C1CC(C2=C(C1)C3=C(N2)C=CC(=C3)Cl)C(=O)N [Selisistat] + O=C(c1cc(Cc2n[nH]c(=O)c3ccccc23)ccc1F)N1CCN(C(=O)C2CC2)CC1 [Olaparib] (partner 8 µM)
Summary of the method: as §1

Serdemetan + Decitabine = compound: c1ccc2c(CCNc3ccc(Nc4ccncc4)cc3)c[nH]c2c1 [Serdemetan] + Nc1ncn([C@H]2C[C@H](O)[C@@H](CO)O2)c(=O)n1 [Decitabine] (partner 2 µM)
Summary of the method: as §1

| Cell Line | relative viability (Selisistat + Lapatinib; first compound 0.4 µM) | relative viability (Selisistat + Lapatinib; first compound 1.265 µM) | relative viability (Selisistat + Lapatinib; first compound 4 µM) | relative viability (Selisistat + Lapatinib; first compound 12.65 µM) | relative viability (Selisistat + Lapatinib; first compound 40 µM) | relative viability (Serdemetan + Tozasertib; first compound 0.04 µM) | relative viability (Serdemetan + Tozasertib; first compound 0.1265 µM) | relative viability (Serdemetan + Tozasertib; first compound 0.4 µM) | relative viability (Serdemetan + Tozasertib; first compound 1.265 µM) | relative viability (Serdemetan + Tozasertib; first compound 4 µM) | relative viability (Selisistat + Olaparib; first compound 0.4 µM) | relative viability (Selisistat + Olaparib; first compound 1.265 µM) | relative viability (Selisistat + Olaparib; first compound 4 µM) | relative viability (Selisistat + Olaparib; first compound 12.65 µM) | relative viability (Selisistat + Olaparib; first compound 40 µM) | relative viability (Serdemetan + Decitabine; first compound 0.04 µM) | relative viability (Serdemetan + Decitabine; first compound 0.1265 µM) | relative viability (Serdemetan + Decitabine; first compound 0.4 µM) | relative viability (Serdemetan + Decitabine; first compound 1.265 µM) | relative viability (Serdemetan + Decitabine; first compound 4 µM) |
| --- | --- | --- | --- | --- | --- | --- | --- | --- | --- | --- | --- | --- | --- | --- | --- | --- | --- | --- | --- | --- |
| NCI-H1666 | 0.751 | 0.574 | 0.437 | 0.589 | 0.472 | 0.569 | 0.588 | 0.588 | 0.553 | 0.547 | 0.798 | 0.763 | 0.745 | 0.811 | 0.631 | 0.798 | 0.657 | 0.652 | 0.645 | 0.697 |
| NCI-H1734 | 1.03 | 1.04 | 1.17 | 1.02 | 1.16 | 0.29 | 0.235 | 0.209 | 0.142 | 0.134 | 0.667 | 0.553 | 0.731 | 0.583 | 0.658 | 0.44 | 0.26 | 0.226 | 0.111 | 0.188 |
| NCI-H1755 | 1.12 | 1.15 | 1.01 | 1.01 | 1.13 | 0.568 | 0.625 | 0.55 | 0.435 | 0.354 | 0.955 | 0.835 | 0.941 | 0.875 | 0.952 | 0.697 | 0.73 | 0.668 | 0.488 | 0.434 |
| NCI-H1793 | 0.793 | 0.636 | – | 0.816 | 0.816 | 0.332 | 0.298 | 0.268 | 0.255 | 0.186 | 1.01 | 0.935 | – | 0.812 | 0.912 | 0.46 | 0.449 | 0.361 | 0.219 | 0.231 |
| NCI-H1915 | 0.967 | 0.969 | 0.918 | 0.897 | 1.02 | 0.406 | 0.416 | 0.38 | 0.317 | 0.396 | 0.329 | 0.26 | 0.25 | 0.252 | 0.304 | 0.266 | 0.259 | 0.253 | 0.231 | 0.239 |
| NCI-H1944 | 0.797 | 0.767 | – | 0.746 | 0.854 | 0.249 | 0.278 | 0.234 | 0.158 | 0.165 | 0.431 | 0.381 | 0.335 | 0.357 | 0.413 | 0.493 | 0.409 | 0.384 | 0.269 | 0.295 |
| NCI-H1975 | 0.823 | 0.831 | 0.706 | 0.759 | 0.65 | 0.825 | 0.701 | 0.722 | – | 0.771 | 0.765 | 0.728 | 0.776 | 0.653 | 0.605 | 0.421 | 0.369 | 0.306 | 0.262 | 0.34 |
| NCI-H1993 | 0.683 | 0.751 | – | 0.913 | 0.806 | 0.578 | 0.579 | 0.592 | 0.568 | 0.562 | 1.06 | 1.07 | – | 1.15 | 1.03 | 0.696 | 0.593 | 0.542 | 0.577 | 0.56 |
